For orientation: pIC50 means the IC50 on a negative log10 scale, so that one unit is a factor of ten.

In patent publication US20230295152A1 (SENDA BIOSCIENCES, INC., priority 2019, published 2023) one finds IC50 data, which are given here for 49 molecules.

pIC50: −log10 of the molar value. Bounds are passed on as bounds.

The target of the experiment is T1, AHR (Homo sapiens, UniProt P35869).
T1 construct: other cell line with a DRE-luciferase reporter stably transfected; endogenous in cells; host or cells: HepG2 AhR-Lucia reporter cells
T1 sequence (P35869 11-848): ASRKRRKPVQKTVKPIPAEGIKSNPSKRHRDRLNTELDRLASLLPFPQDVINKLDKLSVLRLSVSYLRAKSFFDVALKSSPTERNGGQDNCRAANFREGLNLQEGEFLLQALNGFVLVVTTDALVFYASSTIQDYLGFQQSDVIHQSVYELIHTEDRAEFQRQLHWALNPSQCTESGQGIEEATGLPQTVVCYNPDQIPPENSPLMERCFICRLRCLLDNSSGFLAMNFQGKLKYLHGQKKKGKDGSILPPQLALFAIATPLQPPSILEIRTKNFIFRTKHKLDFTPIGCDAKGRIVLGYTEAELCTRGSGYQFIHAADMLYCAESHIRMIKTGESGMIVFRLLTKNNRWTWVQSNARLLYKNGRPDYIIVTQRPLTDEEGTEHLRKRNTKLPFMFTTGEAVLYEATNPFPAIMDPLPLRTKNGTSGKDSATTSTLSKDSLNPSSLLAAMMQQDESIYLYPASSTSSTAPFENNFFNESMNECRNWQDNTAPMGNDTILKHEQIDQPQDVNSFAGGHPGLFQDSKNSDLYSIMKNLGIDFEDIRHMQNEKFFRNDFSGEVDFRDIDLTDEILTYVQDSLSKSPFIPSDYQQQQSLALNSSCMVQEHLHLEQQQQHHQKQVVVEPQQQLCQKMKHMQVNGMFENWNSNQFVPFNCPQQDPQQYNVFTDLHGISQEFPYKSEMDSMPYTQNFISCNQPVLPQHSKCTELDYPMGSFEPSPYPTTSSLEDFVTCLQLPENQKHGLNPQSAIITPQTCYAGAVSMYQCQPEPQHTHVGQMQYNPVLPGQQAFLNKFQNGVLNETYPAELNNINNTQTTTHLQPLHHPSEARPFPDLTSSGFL
Put plainly: DRE-Luciferase Reporter Assay, HepG2 AhR-Lucia reporter cells. In kind it is cell-based. The note with it: with AHR activating ligand at EC50, read-out: HepG2-Luc IC50. From the text:
AHR binds to Dioxin Responsive Elements (DRE) upstream of genes that it activates. One measure of AHR activity is activation of a reporter gene, such as luciferase, downstream of one or multiple DRE elements. Luciferase activity will reflect activation and inhibition of AHR in the cells expressing his reporter. 20000 Human HepG2 liver carcinoma—AhR-Lucia reporter cells or Human HT29 colon adenocarcinoma—AhR reporter cells or other cell line with a DRE-luciferase reporter stably transfected were plated in Eagle's Minimal Essential Medium, 10% heat-inactivated FBS, 1× non-essential amino acids Pen-Strep (10,000 U/mL) and Normocin (100 ug/mL) in plates (96-well, 384-well or other plates) and incubated overnight at 37° C. in a CO2 incubator and treated with and without AhR antagonists at a log dilution starting at 100 uM.
After 1 hr that cells were plated an AHR activating ligand, such as TCDD, kynurenine, ITE (2-(1H-indole-3-ylcarbonyl)-4-thiazolecarboxylic methyl ester), VAF347, BNF (beta-naphthoflavone), FICZ (6-formylindolo(3,2-b) carbazole) or other AHR ligands at their specific EC50 concentration, were added to the cells with or without AHR antagonist.
Cells were incubated for 24 or 48 hours or another time point and then, supernatant was analyzed for determination of luciferase activity as a read-out of the AHR activation or inhibition. Luciferase was measured with the commercial kit QUANTI-Luc™ assay solution kit from Invivogen following the manufacturer's instructions.
The level of luciferase with only agonist ligand added was the maximum signal while the luciferase with […] was the minimum signal. IC50 values were determined as the concentration which inhibits half of the luciferase activity.
On to `O=c1c2cc(-c3ccc(Cl)cc3)nc(-c3cccnc3)c2ncn1C1COCC1O` (racemic) [Compound 29], for which the pIC50 is > 7.00.

For `O=c1c2cc(-c3ccc(Cl)cc3)nc(-c3cccnc3)c2ncn1C1COCC1O` (racemic) [Compound 32], the pIC50 is > 7.00.

On to `O=c1c2cc(-c3ccc(Cl)cc3)nc(-c3cccc(F)c3)c2ncn1C[C@H](O)C(F)(F)F` (stereo in doubt) [Compound 41], for which the pIC50 was > 7.00.

For `O=c1c2cc(-c3ccc(Cl)cc3)nc(-c3cccc(F)c3)c2ncn1C[C@@H](O)C(F)(F)F` (stereo in doubt) [Compound 42], the negative logarithm of the IC50 (pIC50) was > 7.00.

With `C[C@@H](CO)n1cnc2c(-c3ccc(=O)[nH]c3)nc(-c3ccc(Cl)cc3)cc2c1=O` [Compound 2], the pIC50 is 6.30 to 7.00.

Turning to `C[C@@H](CO)n1cnc2c(-c3cccc4c3OCO4)nc(-c3ccc(Cl)cc3)cc2c1=O` [Compound 3], the negative logarithm of the IC50 (pIC50) was 6.30 to 7.00.

For `C[C@@H](CO)n1cnc2c(-c3ccncc3)nc(-c3ccc(C(F)(F)F)nc3)cc2c1=O` [Compound 4], the negative-log IC50 (pIC50) was 6.30 to 7.00.

For `C[C@@H](CO)n1cnc2c(-c3cncc(F)c3)nc(-c3ccc(C(F)(F)F)cc3)cc2c1=O` [Compound 5], the pIC50 is > 7.00.

`O=c1c2cc(-c3cccnc3)nc(-c3cccnc3)c2ncn1CC(O)C(F)(F)F` (stereo not shown) [Compound 10]: the pIC50 was 6.30 to 7.00.

For `C[C@@H](CO)n1cnc2c(-c3cccnc3)nc(Cl)cc2c1=O` [Compound 11, (S)-6-chloro-3-(1-hydroxypropan-2-yl)-8-(pyridin-3-yl)pyrido[3,4-d]pyrimidin-4(3H)-one], the negative logarithm of the IC50 (pIC50) is < 6.30.

For `O=c1c2cc(-c3ccc(Cl)cc3)nc(-c3cccnc3)c2ncn1CC(O)C(F)(F)F` (stereo not shown) [Compound 13], the pIC50 is > 7.00.

In the case of `O=c1c2cc(-c3ccc(OC(F)(F)F)cc3)nc(-c3cccnc3)c2ncn1CC(O)C(F)(F)F` (stereo not shown) [Compound 14], the pIC50 is > 7.00.

On to `Cn1cc(-c2nc(-c3ccc(Cl)cc3)cc3c(=O)n(CC(O)C(F)(F)F)cnc23)cn1` (stereo not shown) [Compound 15], for which the pIC50 is > 7.00.

On to `Cn1cc(-c2cc3c(=O)n(CC(C)(C)O)cnc3c(-c3cnn(C)c3)n2)cn1` [Compound 19], for which the pIC50 was < 6.30.

Turning to `C[C@@H](CO)n1cnc2c(-c3cccnc3)nc(-c3cccnc3)cc2c1=O` [Compound 20], the negative-log IC50 (pIC50) was 6.30 to 7.00.

Consider `C[C@@H](CO)n1cnc2c(-c3cnn(C)c3)nc(-c3ccccc3)cc2c1=O` [Compound 26], for which the pIC50 is 6.30 to 7.00.

For the molecule `Cn1cnc2c(-c3cccnc3)nc(-c3ccc(OC(F)(F)F)cc3)cc2c1=O` [Compound 28], the pIC50 was > 7.00.

For the molecule `CC(C)[C@@H](CO)n1cnc2c(-c3cc(F)cc(F)c3)nc(-c3cc(F)cc(F)c3)cc2c1=O` [Compound 35], the pIC50 is > 7.00.

`C[C@@H](n1cnc2c(-c3cccc(F)c3)nc(-c3ccc(Cl)cc3)cc2c1=O)C(C)(C)O` [Compound 39]: the negative logarithm of the IC50 (pIC50) is > 7.00.

`Cc1ccc(-c2cc3c(=O)n([C@@H](C)COCc4ccccc4)cnc3c(-c3cccc(F)c3)n2)cc1` [Compound 40, 3-[(1S)-2-benzyloxy-1-methyl-ethyl]-8-(3-fluorophenyl)-6-(p-tolyl)pyrido[3,4-d]pyrimidin-4-one]: the pIC50 was < 6.30.

Regarding `COC[C@H](C)n1cnc2c(-c3cccnc3)nc(-c3ccc(C)cc3)cc2c1=O` [Compound 45, (S)-3-(1-methoxypropan-2-yl)-8-(pyridin-3-yl)-6-(p-tolyl)pyrido[3,4-d]pyrimidin-4(3H)-one], the pIC50 was > 7.00.

As to `COC(=O)c1ccc(-c2cc3c(=O)n([C@@H](C)CO)cnc3c(-c3cccnc3)n2)cn1` [Compound 52], the negative logarithm of the IC50 (pIC50) is < 6.30.

With `C[C@@H](CO)n1cnc2c(-c3cccnc3)nc(-c3cnsc3)cc2c1=O` [Compound 53], the pIC50 was 6.30 to 7.00.

Turning to `C[C@@H](CO)n1cnc2c(-c3cnsc3)nc(-c3cnsc3)cc2c1=O` [Compound 56], the negative logarithm of the IC50 (pIC50) was 6.30 to 7.00.

For `CC(C)(O)Cn1cnc2c(-c3cccnc3)nc(-c3cccnc3)cc2c1=O` [Compound 59], the negative-log IC50 (pIC50) is < 6.30.

With `Cc1cc(Cl)ccc1-c1cc2c(=O)n(CC(C)(C)O)cnc2c(-c2cnn(C)c2)n1` [Compound 61], the negative-log IC50 (pIC50) is 6.30 to 7.00.

As to `C[C@@H](CO)n1cnc2c(-c3cn[nH]c3)nc(-c3ccc(C(F)(F)F)nc3)cc2c1=O` [Compound 62], the negative-log IC50 (pIC50) was > 7.00.

With `Cc1ncccc1-c1nc(-c2ccc(C(F)(F)F)nc2)cc2c(=O)n([C@@H](C)CO)cnc12` [Compound 63], the negative logarithm of the IC50 (pIC50) was 6.30 to 7.00.

For `Cc1ccncc1-c1nc(-c2ccc(C(F)(F)F)nc2)cc2c(=O)n([C@@H](C)CO)cnc12` [Compound 64], the pIC50 is < 6.30.

For `Cc1ncsc1-c1cc2c(=O)n([C@@H](C)CO)cnc2c(-c2cccnc2)n1` [Compound 65], the negative-log IC50 (pIC50) was 6.30 to 7.00.

On to `CC(C)c1ncc(-c2cc3c(=O)n([C@@H](C)CO)cnc3c(-c3cccnc3)n2)s1` [Compound 67], for which the negative-log IC50 (pIC50) is > 7.00.

`C[C@@H](CO)n1cnc2c(-c3ccc(C(F)(F)F)nc3)nc(-c3ccc(C(F)(F)F)nc3)cc2c1=O` [Compound 69]: the negative-log IC50 (pIC50) is 6.30 to 7.00.

Regarding `O=c1c2cc(-c3ccc(OC(F)(F)F)cc3)nc(-c3cccnc3)c2ncn1CCO` [Compound 72], the pIC50 was > 7.00.

On to `C[C@@H](CO)n1cnc2c(-c3ccc(=O)n(C)c3)nc(-c3ccc(Cl)cc3)cc2c1=O` [Compound 73], for which the negative logarithm of the IC50 (pIC50) was < 6.30.

On to `Cc1cc(C(F)(F)F)ncc1-c1cc2c(=O)n([C@@H](C)CO)cnc2c(-c2cccnc2)n1` [Compound 75], for which the pIC50 was 6.30 to 7.00.

`C[C@@H](CO)n1cnc2c(-c3cnn(C)c3)nc(-c3cccnc3)cc2c1=O` [Compound 76]: the negative logarithm of the IC50 (pIC50) is 6.30 to 7.00.

For `C[C@@H](CO)n1cnc2c(-c3cccnc3)nc(C3=CCCCC3)cc2c1=O` [Compound 77, (S)-6-(Cyclohex-1-en-1-yl)-3-(1-hydroxypropan-2-yl)-8-(pyridin-3-yl)pyrido[3,4-d]pyrimidin-4(3H)-one], the negative logarithm of the IC50 (pIC50) is < 6.30.

Consider `C[C@@H](CO)n1cnc2c(-c3cncc(F)c3)nc(-c3cncc(F)c3)cc2c1=O` [Compound 78], for which the pIC50 is 6.30 to 7.00.

With `CC(C)(O)Cn1cnc2c(-c3cccnc3)nc(-c3cccnc3C(F)(F)F)cc2c1=O` [Compound 80], the negative logarithm of the IC50 (pIC50) is < 6.30.

On to `C[C@@H](CO)n1cnc2c(-c3cccnc3)nc(-c3cncs3)cc2c1=O` [Compound 84], for which the negative-log IC50 (pIC50) is < 6.30.

In the case of `CC(C)(O)Cn1cnc2c(-c3cccnc3)nc(-c3cnc(C(F)(F)F)s3)cc2c1=O` [Compound 87], the negative-log IC50 (pIC50) was > 7.00.

Take `CC(C)[C@@H](CO)n1cnc2c(-c3cccc(F)c3)nc(-c3ccc(Cl)cc3)cc2c1=O` [Compound 90]: the pIC50 was > 7.00.

As to `C[C@@H](CO)n1cnc2c(C3=CCCN(C)C3)nc(-c3ccc(C(F)(F)F)nc3)cc2c1=O` [Compound 91], the pIC50 was 6.30 to 7.00.

For the molecule `Cc1ncc(-c2cc3c(=O)n([C@@H](C)CO)cnc3c(-c3cccnc3)n2)cn1` [Compound 93], the pIC50 is 6.30 to 7.00.

Take `CC(C)(O)Cn1cnc2c(-c3cnn(C(F)(F)F)c3)nc(-c3ccc(C(F)(F)F)nc3)cc2c1=O` [Compound 94]: the pIC50 was > 7.00.

`CC(C)(O)Cn1cnc2c(-c3cccnc3)nc(-c3cnc(C(F)(F)F)nc3)cc2c1=O` [Compound 96]: the negative logarithm of the IC50 (pIC50) is > 7.00.

With `C[C@@H](CO)n1cnc2c(-c3cccnc3)nc(-c3ccc(C(=O)O)nc3)cc2c1=O` [Compound 97], the negative-log IC50 (pIC50) is < 6.30.

Turning to `Cc1ccc(-c2cc3c(=O)n([C@@H](C)CO)cnc3c(-c3cccnc3)n2)cn1` [Compound 98], the negative logarithm of the IC50 (pIC50) is > 7.00.

Regarding `C[C@@H](CO)n1cnc2c(-c3cccnc3)nc(N3CCCCC3)cc2c1=O` [Compound 100], the pIC50 was < 6.30.
